Source: US6610315B2, “Topical application of stable hydroalcoholic compositions for maintaining or improving skin conditions, and delivering fragrance to skin” (3M Innovative Properties Company, priority 1995, dated 2003)

Tests used:
[1] = tested on: E. coli ATCC8739 (lab strain 223); assay: Minimum Inhibitory Concentration (MIC); assay type: cell-based
Method: (§1) An overnight culture of E. coli ATCC8739 (lab strain 223) and/or S. Aureus ATCC 14154 (lab strain 502) grown on trypticase soy agar plates was resuspended in Mueller-Hinton Broth to a cell density of 0.6-1.2×10^6 colony forming units per milliliter. Chlorhexidine samples were prepared by adjusting CHG to 512 μg/ml in Mueller-Hinton Broth and serially diluting in two-fold steps in Mueller-Hinton Broth. The CHG-containing Mueller-Hinton Broth was placed in 96-well sterile microliter plates and each well was inoculated with the bacteria. The plates were then incubated for 24-48 hrs at 37° C. Bacterial growth was determined visually by comparing the plates.

[2] = tested on: S. Aureus ATCC 14154 (lab strain 502); assay: Minimum Inhibitory Concentration (MIC); assay type: cell-based
Method: as §1

[3] = Example 9, lowest concentration of CHG giving complete kill, 24-48 hrs at 37° C.
[4] = Example 24, CHG at 0.5% by weight where present

N=C(NCCCCCCNC(=N)NC(=N)Nc1ccc(Cl)cc1)NC(=N)Nc1ccc(Cl)cc1.O=C(O)[C@H](O)[C@@H](O)[C@H](O)[C@H](O)CO.O=C(O)[C@H](O)[C@@H](O)[C@H](O)[C@H](O)CO [0.5% CHG std., chlorhexidine gluconate]
4 µg/mL: MIC (μg/ml) E. coli [1, 3] | E. coli 223 MIC [1, 4] | MIC (μg/ml) S. aureus [2, 3] | S aureus 502 MIC [2, 4]
